IC50 data for one molecule are collected here from ChEMBL document CHEMBL5726270, “1-pyrazolyl-3-(4-((2-anilinopyrimidin-4-yl)oxy)napththalen-1-yl) ureas as P38 MAP knase inhibitors” (2017).

In the assay the target is T1, Mitogen-activated protein kinase 12 (Homo sapiens, UniProt P53778).
T1 sequence (P53778 whole entry): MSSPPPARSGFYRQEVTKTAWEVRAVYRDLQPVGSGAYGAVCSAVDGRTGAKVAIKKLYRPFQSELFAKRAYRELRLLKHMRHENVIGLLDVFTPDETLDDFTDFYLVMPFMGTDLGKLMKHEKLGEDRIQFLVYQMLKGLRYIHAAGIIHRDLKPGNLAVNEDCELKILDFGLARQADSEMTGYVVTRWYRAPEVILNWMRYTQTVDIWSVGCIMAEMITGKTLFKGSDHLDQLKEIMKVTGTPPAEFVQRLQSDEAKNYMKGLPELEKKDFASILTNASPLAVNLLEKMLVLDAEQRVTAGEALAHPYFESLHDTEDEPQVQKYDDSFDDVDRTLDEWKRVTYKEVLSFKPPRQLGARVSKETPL
Description: p38 MAPKγ Enzyme Inhibition: The inhibitory activities of compounds of the invention against p38MAPKγ (MAPK12: Invitrogen), were evaluated in a similar fashion to that described hereinabove. The enzyme (800 ng/mL, 2.5 μL) was incubated with the test compound (2.5 μL at either 4 μg/mL, 0.4 μg/mL, 0.04 μg/mL, or 0.004 μg/mL) for 2 hr at RT. The FRET peptides (8 μM, 2.5 μL), and appropriate ATP solution (2.5 μL, 400 μM) was then added to the enzymes/compound mixtures and incubated for 1 hr. Development reagent (protease, 5 μL) was added for 1 hr prior to detection in a fluorescence microplate reader (Varioskan® Flash, Thermo Scientific).

Some results are limits rather than exact numbers.

`Cc1ccc(-n2nc(C(C)(C)C)cc2NC(=O)Nc2ccc(Oc3ccnc(Nc4ccccc4Cl)n3)c3ccccc23)cc1`: the IC50 (in general, the concentration that inhibits the measured activity by half) was more than 15.1 µM.
